Several values for one entry are separate records, joined by “and”; a condition that tells them apart may be missing. Equal values may be shown once.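 Method: 48-hour compound exposure of cells in 96-well plates, five concentrations, linear interpolation of endpoints. The concentration for 50% growth inhibition is given as GI50.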 Activity calls are given as the source filed them. No stated cut-off is given here; in the data, active = GI50 up to about 1.1 µM and inactive = higher.
How the values were obtained:
Experiment in all cases: NCI anticancer screen, dose series, 48 h
MCF7 = test system: MCF7
Hs-578T = test system: Hs-578T
A549 = test system: A549
786-0 = test system: 786-0
SF-268 = test system: SF-268
OVCAR-3 = test system: OVCAR-3
OVCAR-4 = test system: OVCAR-4
IGROV-1 = test system: IGROV-1
UACC-62 = test system: UACC-62
T47D = test system: T47D
K562 = test system: K562
UACC-257 = test system: UACC-257
OVCAR-5 = test system: OVCAR-5
RPMI-8226 = test system: RPMI-8226
HOP-92 = test system: HOP-92
SF-539 = test system: SF-539
SN12C = test system: SN12C
HT-29 = test system: HT-29
OVCAR-8 = test system: OVCAR-8
NCI-H460 = test system: NCI-H460

SMILES	GI50 (MCF7)	GI50 (Hs-578T)	GI50 (A549)	GI50 (786-0)	GI50 (SF-268)	GI50 (OVCAR-3)	GI50 (OVCAR-4)	GI50 (IGROV-1)	GI50 (UACC-62)	GI50 (T47D)	GI50 (K562)	GI50 (UACC-257)	GI50 (OVCAR-5)	GI50 (RPMI-8226)	GI50 (HOP-92)	GI50 (SF-539)	GI50 (SN12C)	GI50 (HT-29)	GI50 (OVCAR-8)	GI50 (NCI-H460)
COc1ccc2c(c1)CCc1[nH]c3ccccc3c1CCCC2	> 10 µM (inactive)	> 10 µM (inactive)	> 10 µM (inactive)	> 10 µM (inactive)	> 10 µM (inactive)	> 10 µM (inactive)	> 10 µM (inactive)	> 10 µM (inactive)	> 10 µM (inactive)	> 10 µM (inactive)	> 10 µM (inactive)	> 10 µM (inactive)	> 10 µM (inactive)	> 10 µM (inactive)	> 10 µM (inactive)	> 10 µM (inactive)	> 10 µM (inactive)	> 10 µM (inactive)	> 10 µM (inactive)	–
O=C1/C(=C/c2ccc(O)c(CN3CCCCC3)c2)CCC/C1=C\c1ccc(O)c(CN2CCCCC2)c1	3.26 µM (inactive)	8.24 µM (inactive)	16.7 µM (inactive)	3.52 µM (inactive)	3.52 µM (inactive)	5.12 µM (inactive)	6.81 µM (inactive)	5.75 µM (inactive)	16 µM (inactive)	17.5 µM (inactive)	1.99 µM (inactive)	10.6 µM (inactive)	29.6 µM (inactive)	6.85 µM (inactive)	4.26 µM (inactive)	–	8.79 µM (inactive)	1.51 µM (inactive)	4.48 µM (inactive)	3.05 µM (inactive)
CCc1cn2c(/C=N/N=C(N)N)c(-c3cc(C)c(Cl)cc3Cl)nc2s1	1.71 µM (inactive)	1.71 µM (inactive)	1.67 µM (inactive)	0.847 µM (active)	1.98 µM (inactive)	1.48 µM (inactive)	1.42 µM (inactive)	1.69 µM (inactive)	1.42 µM (inactive)	1.4 µM (inactive)	1.01 µM (active)	1.4 µM (inactive)	1.61 µM (inactive)	1.24 µM (inactive)	1.64 µM (inactive)	1.74 µM (inactive)	–	1.22 µM (inactive)	1.58 µM (inactive)	1.86 µM (inactive)
COc1ccc(/C=N\N(C)Cc2cccc3ccsc23)cc1	> 100 µM (inactive)	> 100 µM (inactive)	> 100 µM (inactive)	> 100 µM (inactive)	> 100 µM (inactive)	33.6 µM (inactive)	92.5 µM (inactive)	> 100 µM (inactive)	> 100 µM (inactive)	> 100 µM (inactive)	54.8 µM (inactive)	48.9 µM (inactive)	> 100 µM (inactive)	–	> 100 µM (inactive)	–	> 100 µM (inactive)	49.2 µM (inactive)	> 100 µM (inactive)	> 100 µM (inactive)
COc1ccc(OC)c(/C=C/[N+](=O)[O-])c1	2.32 µM (inactive)	4 µM (inactive)	3.24 µM (inactive) and 5.79 µM (inactive)	1.79 µM (inactive) and 1.57 µM (inactive)	3.01 µM (inactive) and 4.54 µM (inactive)	2.14 µM (inactive) and 1.75 µM (inactive)	4.31 µM (inactive) and 2.8 µM (inactive)	–	–	3.01 µM (inactive)	2.59 µM (inactive) and 2.83 µM (inactive)	4.1 µM (inactive) and 3.92 µM (inactive)	–	1.39 µM (inactive) and 845 nM (active)	4.35 µM (inactive) and 3.05 µM (inactive)	3.6 µM (inactive) and 2.89 µM (inactive)	2.44 µM (inactive) and 3.77 µM (inactive)	3.47 µM (inactive) and 2.49 µM (inactive)	5.6 µM (inactive) and 4.23 µM (inactive)	3.24 µM (inactive) and 5.48 µM (inactive)
ON(CCc1ccncc1)Cc1ccccc1	> 100 µM (inactive)	> 100 µM (inactive)	> 100 µM (inactive)	> 100 µM (inactive)	> 100 µM (inactive)	> 100 µM (inactive)	> 100 µM (inactive)	> 100 µM (inactive)	> 100 µM (inactive)	> 100 µM (inactive)	> 100 µM (inactive)	–	> 100 µM (inactive)	> 100 µM (inactive)	> 100 µM (inactive)	> 100 µM (inactive)	> 100 µM (inactive)	> 100 µM (inactive)	> 100 µM (inactive)	–
COc1ccc(CNC2=N/C(=C\c3ccccc3Cl)C(=O)N2C)cc1	25.5 µM (inactive)	57.4 µM (inactive)	31.1 µM (inactive)	19.7 µM (inactive)	45 µM (inactive)	22.8 µM (inactive)	23.9 µM (inactive)	24.9 µM (inactive)	17.5 µM (inactive)	14.2 µM (inactive)	25.5 µM (inactive)	33.6 µM (inactive)	27.9 µM (inactive)	–	23.1 µM (inactive)	24.6 µM (inactive)	19.6 µM (inactive)	22.9 µM (inactive)	27.1 µM (inactive)	30.1 µM (inactive)
Cc1cc(S(=O)(=O)NC2=Nc3cccc4cccc(c34)N2)c(S)cc1Cl	> 100 µM (inactive)	> 100 µM (inactive)	55.1 µM (inactive)	84.5 µM (inactive)	> 100 µM (inactive)	53.7 µM (inactive)	85.9 µM (inactive)	63.5 µM (inactive)	> 100 µM (inactive)	> 100 µM (inactive)	> 100 µM (inactive)	> 100 µM (inactive)	> 100 µM (inactive)	> 100 µM (inactive)	> 100 µM (inactive)	> 100 µM (inactive)	–	–	> 100 µM (inactive)	55.6 µM (inactive)
Oc1ccccc1/C=N/c1ccc(-c2nc3ccccc3[nH]2)cc1	20.7 µM (inactive)	> 100 µM (inactive)	> 100 µM (inactive)	> 100 µM (inactive)	43 µM (inactive)	> 100 µM (inactive)	> 100 µM (inactive)	28.4 µM (inactive)	–	10.4 µM (inactive)	43.2 µM (inactive)	47.8 µM (inactive)	> 100 µM (inactive)	26.6 µM (inactive)	22.9 µM (inactive)	> 100 µM (inactive)	79.1 µM (inactive)	81.8 µM (inactive)	47.1 µM (inactive)	54.8 µM (inactive)
CC(=O)O[C@H]1[C@H](OC(C)=O)[C@@H](CN=[N+]=[N-])OCO[C@@H]1CN=[N+]=[N-]	> 100 µM (inactive)	< 0.01 µM (active)	> 100 µM (inactive)	> 100 µM (inactive)	> 100 µM (inactive)	–	> 100 µM (inactive)	> 100 µM (inactive)	> 100 µM (inactive)	> 100 µM (inactive)	> 100 µM (inactive)	> 100 µM (inactive)	> 100 µM (inactive)	> 100 µM (inactive)	> 100 µM (inactive)	> 100 µM (inactive)	> 100 µM (inactive)	> 100 µM (inactive)	> 100 µM (inactive)	> 100 µM (inactive)
COc1c(O)cc(/C=C/c2cc(O)cc3c2[C@@]2(C(=O)O3)c3c(O)cc(O)cc3OC2c2cccc(O)c2)cc1O (some centres undefined)	48.6 µM (inactive)	72.8 µM (inactive)	> 100 µM (inactive)	68.7 µM (inactive)	62.4 µM (inactive)	54 µM (inactive)	19.6 µM (inactive)	16.2 µM (inactive)	30.4 µM (inactive)	65.9 µM (inactive)	65.3 µM (inactive)	> 100 µM (inactive)	–	14.7 µM (inactive)	> 100 µM (inactive)	39.4 µM (inactive)	19.2 µM (inactive)	30.5 µM (inactive)	23.7 µM (inactive)	11.3 µM (inactive)
Brc1cccc(Nc2ncnc3sc4c(c23)CCC2(C4)OCCO2)c1	28.3 µM (inactive)	28.4 µM (inactive)	80 µM (inactive)	25.7 µM (inactive)	27.6 µM (inactive)	28.4 µM (inactive)	20.1 µM (inactive)	8.73 µM (inactive)	22.9 µM (inactive)	5.61 µM (inactive)	–	26.7 µM (inactive)	> 100 µM (inactive)	–	10.7 µM (inactive)	–	27.4 µM (inactive)	45.4 µM (inactive)	24.5 µM (inactive)	33.3 µM (inactive)
O=C(NC(Cl)(C(F)(F)F)C(F)(F)F)c1ccc(F)cc1	> 100 µM (inactive)	> 100 µM (inactive)	> 100 µM (inactive)	> 100 µM (inactive)	> 100 µM (inactive)	> 100 µM (inactive)	> 100 µM (inactive)	> 100 µM (inactive)	–	> 100 µM (inactive)	> 100 µM (inactive)	> 100 µM (inactive)	> 100 µM (inactive)	> 100 µM (inactive)	> 100 µM (inactive)	> 100 µM (inactive)	> 100 µM (inactive)	> 100 µM (inactive)	> 100 µM (inactive)	> 100 µM (inactive)
Cc1ccc(NCc2nnc3c(-c4ccccc4)nc4ccccc4n23)cc1	23.6 µM (inactive)	50.7 µM (inactive)	23.2 µM (inactive)	27.9 µM (inactive)	43.6 µM (inactive)	49.7 µM (inactive)	28.2 µM (inactive)	17.5 µM (inactive)	33.7 µM (inactive)	3.36 µM (inactive)	13 µM (inactive)	36 µM (inactive)	39.9 µM (inactive)	–	16 µM (inactive)	60.5 µM (inactive)	32.6 µM (inactive)	21.5 µM (inactive)	24 µM (inactive)	28.8 µM (inactive)

Source: ChEMBL document CHEMBL1201862, “PubChem BioAssay data set” (2004)
